# Patent US6919441B2, “Polyamide-oligonucleotide derivatives, their preparation and use” (Aventis Pharma Deutschland GmbH, priority 1995, dated 2005)
# How the values were obtained:
# N-ras RNA = assay: RNase H mediated cleavage of N-ras RNA, cell-free system; format: biochemical; details: RNase H from E. coli
# Protocol: The ability to cleave N-ras RNA specifically by PNA-DNA chimera directed against N-ras which can induce RNase H was tested in a cell-free system. First, radioactively labelled N-ras RNA was prepared by in vitro transcription.
# The plasmid pMS5-NRAS, which is a derivative of pBluescript II KS (±/−) containing the mutant N-ras sequence (codon 13 GGT→CGT) cloned into XbaI/EcoRI sites, was linearized with EcoR1. After phenol extraction and ethanol precipitation the linear DNA was used as template for in vitro transcription. For transcription, the DNA (5 μg) was incubated in a 100 μl mixture containing 10 mM DTT, 40 mM Tris-HCl pH 7.5, 50 mM NaCl, 8 mM MgCl2, 2 mM spermidine, 500 μM of each rNTP, 80 u RNase-inhibitor, 40 μCi [α-^32P]-(ATP) and 250 u T7 RNA polymerase. After incubation for 1 h at 37° C., the DNA was digested by addition of 25 u DNaseI and further incubation for 30 min at 37° C. After extraction with phenol and chloroform, the aqueous phase was transferred into a Centricon tube and centrifuged at 3410 rpm for 30 min. The RNA was analyzed by PAGE (6% PAA, 8 M urea). For the RNase H cleavage the radioactively labelled N-ras RNA (approximately 0.05 nmol; aqueous solution from above) was hybridized with the PNA-DNA chimera speific for N-ras mRNA (6.5 nmol) by heating to 80° C. and cooling to room temperature. […] The cleavage reactions were analyzed by PAGE (6% PAA, 8 M urea) gel.
# TNF-α = assay: Inhibition of TNF-α expression in THP-1 cells (ELISA); format: cell-based, human; details: 0.1-0,5 μM, Cellfectin, PMA/IFNγ stimulation
# Protocol: Cell Culture. The human monocytic cell line, THP-1 was grown in RPMI 1640 supplemented with L-glutamine (GIBCO BRL, Life Technologies, Inc.), 10% heat inactivated fetal bovine serum (GIBCO BRL) and penicillin (100 U/ml)/streptomycin (100 μg/ml). The NIH3T3 permanently producing human TNFα was maintained in 10% DMEM.
# Enzyme Linked Immunosorbent Assays (ELISA) for TNFα. The TNFα level was quantified using ELISA kit (Cat. #DTA50) obtained from R&D Systems (Minneapolis, Minn.).
# Assay Methods. THP-1 cells (3×10^6) were seeded in 48-well plates in 0.2 ml of Opti-MEM (GIBCO) medium. In a 96-well plate, varying concentrations of PNA-DNA chimera (20 μl) were each added to 20 μl of Cellfectin in Opti-MEM (2.4 μl of 1 mg/ml Cellfectin added to 17.6 μl Opti-MEM) and incubated for 15 min at room temperature. The mixture was then added to the cells dropwise. The final concentration of the Cellfectin was 10 μg/ml in 0.24 ml of Opti-MEM. After 4 hours at 37° C., 0.48 ml of 15% RPMI medium was added to each well (This dilution step was added to inactivate the Cellfectin). The final concentration of cells was ˜1×10^6 calls/ml in 10% RPMI. The cells were then stimulated with a combination of 100 ng/ml of PMA and 300 U/ml of IFNγ. […] The supernatants were analyzed for TNFα.
Substance,induction of RNase H mediated cleavage of N-ras RNA (N-ras RNA),inhibition of TNF-α expression relative to untreated controls (TNF-α)
5′-CCAACA-(Oeg(c))-cgacctgct-hex [Example 57],able to induce RNase H mediated cleavage,–
5′-USCSASGGSUG-(Oeg(t))-cctttgcag-hex [Example 56],–,25-35%
